From paper PMC12126525, “Mechanism of ATP hydrolysis in the Hsp70 BiP nucleotide-binding domain” (Nature Communications, 2025)

What was measured:
BiP NBD [1] = biological target: T1, BiP NBD (Homo sapiens, UniProt P11021); experiment: NMR experiment with MABA-ATP (no E1, no E2) and kinetic fit of the MABA-ATP/MABA-ADP functional cycle; assay type: biochemical; set-up: His6 (N, cleaved yes); made in house; host or cells: E. coli BL21-(DE3)-Lemo, pET28a vector; details: for koff / kon / Kd: MABA-ATP instead of ATP; for Kd: T = 37°C; for species: Supplementary Fig 13b
Protocol: […] After the equilibration time 2D [^13C,^1H]-HMQC spectra were recorded in interleaved mode with 1D ^1H NMR spectra. […] The same setup was used for the alternative experiments by including or excluding E1 and/or E2. When E1 was not included, the ratio of the ATP/ADP NMR signals was used to monitor their relative concentrations.
(1 picture or pasted object on this page, not shown here)

BiP NBD [2] = biological target: T1, BiP NBD; experiment: Global kinetic fit (MCMC) of four NMR data sets (E1+E2, E1 only, E2 only, no recycling): functional cycle kinetic parameters; assay type: biochemical; set-up: His6 (N, cleaved yes); made in house; host or cells: E. coli BL21-(DE3)-Lemo, pET28a vector; details: for koff / kon / Kd: T = 37 °C; for Kd: standard buffer
Excerpt: It comprises 5 different states that are connected by […] reaction equations of first and second order. We consider ATP hydrolysis an irreversible reaction without backreaction. The other pathways are reversible dissociation/association reactions, arbitrarily labeled 1–5. The microscopic equations (elementary reactions) for these 11 reactions are given by:1 NBD^ATPkcat→NBD^ADP⋅Pi 2 NBD^ATPkoff1⇌kon1NBD^apo+ATP 3 NBD^ADPkoff2⇌kon2NBD^apo+ADP 4 NBD^Pikoff3⇌kon3NBD^apo+Pi 5 NBD^ADP⋅Pikoff4⇌kon4NBD^ADP+Pi 6 NBD^ADP⋅Pikoff5⇌kon5NBD^Pi+ADP With the forward and backward kinetic rate constants connected by thermodynamic equilibrium dissociation constants given by7 koffi/koni=KDifori=1,…,5 For each of the 5 states, a differential equation describing the conservation of mass can be derived:8 d/dtNBD^apo=+koff1NBD^ATP+koff2NBD^ADP+koff3NBD^Pi−kon1NBD^apoATP−kon2NBD^apoADP−kon3NBD^apoPi 9 d/dt[NBD^ATP]=+kon1NBD^apoATP−koff1NBD^ATP−kcatNBD^ATP 10 d/dtNBD^ADP⋅Pi=+kcatNBD^ATP+kon4NBD^ADPPi+kon5NBD^PiADP−koff4NBD^ADP⋅Pi−koff5NBD^ADP⋅Pi 11 d/dtNBD^ADP=+koff4NBD^ADP⋅Pi+kon2NBD^apoADP−koff2NBD^ADP−kon4NBD^ADPPi 12 d/dtNBD^Pi=+koff5NBD^ADP⋅Pi+kon3NBD^apoPi−koff3NBD^Pi−kon5NBD^PiADP Furthermore, we have the total amount13 NBD^apo+NBD^ATP+NBD^ADP+NBD^ADP⋅Pi+NBD^Pi=NBD0 These equations can be used for numerical fitting of steady-state and non-steady-state experimental data.
The experimental data of the BiP NBD in-cyclo experiments were fitted using standard reaction kinetics. Free variables were the kon and koff rates for the five reversible reaction and the catalytic rate constant (kcat) for the irreversible ATP hydrolysis step (See theory section). The initial values for kcat , koff2 , koff4 and koff5 were set to the value determined experimentally with in-cyclo experiment. The initial value for koff3 was taken from the EXSY experiment and the initial range for koff1 and KD1 were taken from the literature. […] The prior distributions were defined based on the average state occupancy resolved from the in-cyclo experiment: tNBD·ADP, tNBD, tNBD·ADP·Pi and tNBD·Pi. Numerical integration of the corresponding differential equations for the reaction scheme (described in Fig. 2a) was performed using a custom Python module (Kinetic).
To fully determine all kinetic parameters, the data fitting procedure was conducted as a global fit of four independent experimental datasets: (i) the in-cyclo experiment with ATP regeneration and phosphate removal, (ii) ATP regeneration only, (iii) single batch experiments starting from pure ATP with the phosphate removal system, and (iv) single batch experiments starting from pure ATP.
Fitting of the functional cycle kinetic parameters. a-d, Global fit of the experimental data presented in the manuscript E1 +E2 (a), E1 (b), E2 (c), no recycling system (d). Data points are shown as circles NBD·ADP (blue), NBD·ADP·PI (dark blue) and NBD·ATP (red) (left) and pyruvate (grey), glucose-1-P (lavender), ATP (red) and ADP (blue) (right). The fit of the data is shown as lines in the same color as the data points. Data points and standard deviation for three independent experiments. e, Numerical stability of the global fitting of the experimental data.

T1 sequence (P11021 19-406): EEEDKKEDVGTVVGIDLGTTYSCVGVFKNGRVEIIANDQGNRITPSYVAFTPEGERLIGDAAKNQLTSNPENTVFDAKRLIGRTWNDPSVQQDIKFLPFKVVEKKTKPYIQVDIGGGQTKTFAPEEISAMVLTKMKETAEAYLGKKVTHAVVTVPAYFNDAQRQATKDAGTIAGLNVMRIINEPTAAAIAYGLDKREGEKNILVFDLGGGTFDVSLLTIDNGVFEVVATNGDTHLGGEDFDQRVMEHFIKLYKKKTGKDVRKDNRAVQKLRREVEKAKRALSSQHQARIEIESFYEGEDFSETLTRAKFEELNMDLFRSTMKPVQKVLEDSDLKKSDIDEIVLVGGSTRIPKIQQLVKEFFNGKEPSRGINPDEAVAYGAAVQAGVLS

Q: `O=P(O)(O)O` [Pi] was tested. Which koff (BiP NBD [1]; reactions 1MABA, 2MABA, 3) did it give?
A: 1 ± 0.3 s⁻¹

Q: And the kon (BiP NBD [1]; reactions 1MABA, 2MABA, 3)?
A: 3500 ± 500 M⁻¹ s⁻¹

Q: What about the Kd (BiP NBD [1]; reactions 1MABA, 2MABA, 3: release to apo NBD) of the same compound?
A: 280 ± 30 µM

Q: And the koff (BiP NBD [1]; reactions 4MABA, 5MABA)?
A: 0.043 s⁻¹

Q: And the kon (BiP NBD [1]; reactions 4MABA, 5MABA)?
A: 120 ± 20 M⁻¹ s⁻¹

Q: And the Kd (BiP NBD [1]; reactions 4MABA, 5MABA: release from NBD·MABA-ADP·Pi)?
A: 360 ± 20 µM

Q: And the species (BiP NBD [1]; time 4 min)?
A: 350 µM

Q: And the species (BiP NBD [1]; time 10 min)?
A: 508 µM

Q: What about the species (BiP NBD [1]; time 16 min) of the same compound?
A: 626 µM

Q: What about the species (BiP NBD [1]; time 22 min) of the same compound?
A: 712 µM

Q: What about the species (BiP NBD [1]; time 28 min) of the same compound?
A: 800 µM

Q: And the species (BiP NBD [1]; time 34 min)?
A: 840 µM

Q: What about the species (BiP NBD [1]; time 40 min) of the same compound?
A: 889 µM

Q: What about the species (BiP NBD [1]; time 46 min) of the same compound?
A: 907 µM

Q: What about the species (BiP NBD [1]; time 52 min) of the same compound?
A: 929 µM

Q: And the species (BiP NBD [1]; time 58 min)?
A: 924 µM

Q: And the species (BiP NBD [1]; time 64 min)?
A: 932 µM

Q: And the species (BiP NBD [2]; Supplementary Fig 10a, time 5 min)?
A: 25 µM

Q: What about the species (BiP NBD [2]; Supplementary Fig 10a, time 11 min) of the same compound?
A: 25 µM

Q: And the species (BiP NBD [2]; Supplementary Fig 10a, time 17 min)?
A: 25 µM

Q: And the species (BiP NBD [2]; Supplementary Fig 10a, time 23 min)?
A: 25 µM

Q: What about the species (BiP NBD [2]; Supplementary Fig 10a, time 29 min) of the same compound?
A: 25 µM

Q: And the species (BiP NBD [2]; Supplementary Fig 10a, time 35 min)?
A: 25 µM

Q: And the species (BiP NBD [2]; Supplementary Fig 10a, time 41 min)?
A: 25 µM

Q: And the species (BiP NBD [2]; Supplementary Fig 10a, time 47 min)?
A: 25 µM

Q: And the species (BiP NBD [2]; Supplementary Fig 10a, time 53 min)?
A: 25 µM

Q: And the species (BiP NBD [2]; Supplementary Fig 10a, time 59 min)?
A: 25 µM

Q: And the species (BiP NBD [2]; Supplementary Fig 10a, time 65 min)?
A: 25 µM

Q: What about the species (BiP NBD [2]; Supplementary Fig 10a, time 71 min) of the same compound?
A: 25 µM

Q: And the species (BiP NBD [2]; Supplementary Fig 10b, time 10 min)?
A: 1011 µM

Q: What about the species (BiP NBD [2]; Supplementary Fig 10b, time 16 min) of the same compound?
A: 1602 µM

Q: What about the species (BiP NBD [2]; Supplementary Fig 10b, time 22 min) of the same compound?
A: 2255 µM

Q: What about the species (BiP NBD [2]; Supplementary Fig 10b, time 28 min) of the same compound?
A: 2820 µM

Q: What about the species (BiP NBD [2]; Supplementary Fig 10b, time 34 min) of the same compound?
A: 3384 µM

Q: And the species (BiP NBD [2]; Supplementary Fig 10b, time 40 min)?
A: 3735 µM

Q: What about the species (BiP NBD [2]; Supplementary Fig 10b, time 46 min) of the same compound?
A: 4207 µM

Q: And the species (BiP NBD [2]; Supplementary Fig 10b, time 52 min)?
A: 4544 µM

Q: And the species (BiP NBD [2]; Supplementary Fig 10b, time 58 min)?
A: 4962 µM

Q: And the species (BiP NBD [2]; Supplementary Fig 10b, time 64 min)?
A: 5335 µM

Q: What about the species (BiP NBD [2]; Supplementary Fig 10b, time 70 min) of the same compound?
A: 5727 µM

Q: What about the species (BiP NBD [2]; Supplementary Fig 10c, time 5 min) of the same compound?
A: 25 µM

Q: And the species (BiP NBD [2]; Supplementary Fig 10c, time 11 min)?
A: 25 µM

Q: What about the species (BiP NBD [2]; Supplementary Fig 10c, time 17 min) of the same compound?
A: 25 µM

Q: And the species (BiP NBD [2]; Supplementary Fig 10c, time 23 min)?
A: 25 µM

Q: And the species (BiP NBD [2]; Supplementary Fig 10c, time 29 min)?
A: 25 µM

Q: And the species (BiP NBD [2]; Supplementary Fig 10c, time 35 min)?
A: 25 µM

Q: And the species (BiP NBD [2]; Supplementary Fig 10c, time 41 min)?
A: 25 µM

Q: What about the species (BiP NBD [2]; Supplementary Fig 10c, time 47 min) of the same compound?
A: 25 µM

Q: And the species (BiP NBD [2]; Supplementary Fig 10c, time 53 min)?
A: 25 µM

Q: What about the species (BiP NBD [2]; Supplementary Fig 10d, time 5 min) of the same compound?
A: 936 µM

Q: And the species (BiP NBD [2]; Supplementary Fig 10d, time 11 min)?
A: 1380 µM

Q: And the species (BiP NBD [2]; Supplementary Fig 10d, time 17 min)?
A: 1670 µM

Q: What about the species (BiP NBD [2]; Supplementary Fig 10d, time 23 min) of the same compound?
A: 1894 µM

Q: What about the species (BiP NBD [2]; Supplementary Fig 10d, time 29 min) of the same compound?
A: 2069 µM

Q: And the species (BiP NBD [2]; Supplementary Fig 10d, time 35 min)?
A: 2212 µM

Q: What about the species (BiP NBD [2]; Supplementary Fig 10d, time 41 min) of the same compound?
A: 2337 µM

Q: What about the species (BiP NBD [2]; Supplementary Fig 10d, time 47 min) of the same compound?
A: 2452 µM

Q: What about the species (BiP NBD [2]; Supplementary Fig 10d, time 53 min) of the same compound?
A: 2552 µM

Q: What about the “rate of phosphate release relative to ADP release from the ADP·Pi-bound state” value (BiP NBD [2]; koff4 versus koff5) of the same compound?
A: 2.5 times

Q: What about the koff (BiP NBD [2]; reactions 1-3 (koff1, koff2, koff3): release from binary complex) of the same compound?
A: 1.3 ± 0.2 s⁻¹

Q: What about the kon (BiP NBD [2]; reactions 1-3: binding to apo NBD) of the same compound?
A: 5000 ± 1000 M⁻¹ s⁻¹

Q: What about the Kd (BiP NBD [2]; reactions 1-3: ligand leaving the binary complex to give apo NBD) of the same compound?
A: 260 ± 20 µM

Q: What about the koff (BiP NBD [2]; reactions 4, 5 (koff4, koff5): release from NBD·ADP·Pi) of the same compound?
A: 0.047 ± 0.01 s⁻¹

Q: What about the kon (BiP NBD [2]; reactions 4, 5: Pi binding to NBD·ADP, ADP binding to NBD·Pi) of the same compound?
A: 200 ± 60 M⁻¹ s⁻¹

Q: What about the Kd (BiP NBD [2]; reactions 4, 5: one ligand leaving NBD·ADP·Pi, the other stays bound) of the same compound?
A: 235 ± 50 µM
